Reference: US20080200454A1, “CARBON-LINKED TETRAHYDRO-PYRAZOLO-PYRIDINE MODULATORS OF CATHEPSIN S” (priority 2007, published 2008)
Counter-ions that a name gives are not always drawn.

These compounds were tested against Recombinant human cathepsin S (CatS) (Homo sapiens, UniProt P25774) (assay: Recombinant human cathepsin S (CatS) inhibition assay, fluorogenic substrate Z-Valine-Valine-Arginine-AMC). Conditions: not given.
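Also: Baculovirus-expressed CatS in pH 5.0 sodium acetate buffer with DTT and NaCl, fluorescence read each minute over 20 min, inhibition derived from rate slope.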

Sequence of Recombinant human cathepsin S (CatS) (P25774 115-331): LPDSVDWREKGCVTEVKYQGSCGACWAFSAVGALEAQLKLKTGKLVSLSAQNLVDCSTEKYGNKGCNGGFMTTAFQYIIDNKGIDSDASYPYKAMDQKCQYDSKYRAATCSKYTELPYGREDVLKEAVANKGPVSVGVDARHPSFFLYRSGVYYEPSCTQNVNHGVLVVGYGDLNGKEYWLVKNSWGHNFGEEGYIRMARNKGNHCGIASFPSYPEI

| Compound | IC50 |
| --- | --- |
| NC(=O)N1CCc2c(c(-c3ccc(Cl)c(C#Cc4ccc(Cl)c(C(=O)NC[C@@H]5CCNC5)c4)c3)nn2CCCN2CCSCC2)C1 [Example 582, 3-{4-Chloro-3-[(4-chloro-3-{[(3R)-pyrrolidin-3-ylmethyl]carbamoyl}phenyl)ethynyl]phenyl}-1-(3-thiomorpholin-4-ylpropyl)-1,4,6,7-tetrahydro-5H-pyrazolo[4,3-c]pyridine-5-carboxamide] | 40 nM |
| CS(=O)(=O)N1CCc2c(c(-c3ccc(Cl)c(C#Cc4ccc(Oc5ccccc5)cc4)c3)nn2CCCN2CCOCC2)C1 [Example 17, 3-[4-Chloro-3-(4-phenoxy-phenylethynyl)-phenyl]-5-methanesulfonyl-1-(3-morpholin-4-yl-propyl)-4,5,6,7-tetrahydro-1H-pyrazolo[4,3-c]pyridine] | 1900 nM |
| CC(=O)NCc1ccc(C#Cc2cc(-c3nn(CCCN4CCOCC4)c4c3CN(S(C)(=O)=O)CC4)ccc2Cl)cc1 [Example 72, N-(4-{2-Chloro-5-[5-methanesulfonyl-1-(3-morpholin-4-yl-propyl)-4,5,6,7-tetrahydro-1H-pyrazolo[4,3-c]pyridin-3-yl]-phenylethynyl}-benzyl)-acetamide] | 490 nM |
| Clc1ccc(C#Cc2cc(-c3nn(CCCN4CCOCC4)c4c3CNCC4)ccc2Cl)cc1 [Example 297, 3-{4-Chloro-3-[(4-chlorophenyl)ethynyl]phenyl}-1-(3-morpholin-4-ylpropyl)-4,5,6,7-tetrahydro-1H-pyrazolo[4,3-c]pyridine] | 1600 nM |
| Cc1ccccc1S(=O)(=O)NCCCc1cc(-c2nn(CCCN3CCC(N4CCCC4=O)CC3)c3c2CN(S(C)(=O)=O)CC3)ccc1Cl [Example 94, N-{3-[2-Chloro-5-(5-methanesulfonyl-1-{3-[4-(2-oxo-pyrrolidin-1-yl)-piperidin-1-yl]-propyl}-4,5,6,7-tetrahydro-1H-pyrazolo[4,3-c]pyridin-3-yl)-phenyl]-propyl}-2-methyl-benzenesulfonamide] | 1100 nM |
| CS(=O)(=O)N1CCc2c(c(-c3ccc(Cl)c(C#Cc4ccc(CC(=O)O)cc4)c3)nn2CCCN2CCOCC2)C1 [Example 15, (4-{2-Chloro-5-[5-methanesulfonyl-1-(3-morpholin-4-yl-propyl)-4,5,6,7-tetrahydro-1H-pyrazolo[4,3-c]pyridin-3-yl]-phenylethynyl}-phenyl)-acetic acid, trifluoroacetic acid salt] | 150 nM |
| NC(=O)C(=O)N1CCc2c(c(-c3ccc(Cl)c(C#Cc4ccc(Cl)c(CNC5CC5)c4)c3)nn2CCCN2CCCCC2)C1 [Example 600, 2-{3-[4-Chloro-3-({4-chloro-3-[(cyclopropylamino)methyl]phenyl}ethynyl)phenyl]-1-(3-piperidin-1-ylpropyl)-1,4,6,7-tetrahydro-5H-pyrazolo[4,3-c]pyridin-5-yl}-2-oxoacetamide] | 30 nM |
| CS(=O)(=O)N1CCc2c(c(-c3ccc(Cl)c(CCCN)c3)nn2CCCN2CCC(N3CCCC3=O)CC2)C1 [Example 308, 1-[1-(3-{3-[3-(3-Aminopropyl)-4-chlorophenyl]-5-(methylsulfonyl)-4,5,6,7-tetrahydro-1H-pyrazolo[4,3-c]pyridin-1-yl}propyl)piperidin-4-yl]pyrrolidin-2-one] | 5650 nM |
| CC(C)(C)OC(=O)NCc1ccccc1C#Cc1cc(-c2nn(CCCN3CCOCC3)c3c2CN(S(C)(=O)=O)CC3)ccc1Cl [Example 384, 1,1-Dimethylethyl {[2-({2-chloro-5-[5-(methylsulfonyl)-1-(3-morpholin-4-ylpropyl)-4,5,6,7-tetrahydro-1H-pyrazolo[4,3-c]pyridin-3-yl]phenyl}ethynyl)phenyl]methyl}carbamate] | 2790 nM |
| CS(=O)(=O)N1CCc2c(c(-c3ccc(Cl)c(C#Cc4ccc(CNCc5ccc(Cl)cc5)cc4)c3)nn2CC(O)CN2CCOCC2)C1 (stereo not drawn) [Example 332, 1-[3-(4-Chloro-3-{[4-({[(4-chlorophenyl)methyl]amino}methyl)phenyl]ethynyl}phenyl)-5-(methylsulfonyl)-4,5,6,7-tetrahydro-1H-pyrazolo[4,3-c]pyridin-1-yl]-3-morpholin-4-ylpropan-2-ol] | 190 nM |
| CS(=O)(=O)N1CCc2c(c(-c3ccc(Cl)c(CCCNS(=O)(=O)Cc4ccccc4)c3)nn2CCCN2CCOCC2)C1 [Example 81, N-(3-{2-Chloro-5-[5-methanesulfonyl-1-(3-morpholin-4-yl-propyl)-4,5,6,7-tetrahydro-1H-pyrazolo[4,3-c]pyridin-3-yl]-phenyl}-propyl)-C-phenyl-methanesulfonamide] | 5470 nM |
| CC(C)(O)CNCc1cc(C#Cc2cc(-c3nn(CCCN4CCSCC4)c4c3CN(C(=O)C(N)=O)CC4)ccc2Cl)ccc1Cl [Example 562, 2-[3-{4-Chloro-3-[(4-chloro-3-{[(2-hydroxy-2-methylpropyl)amino]methyl}phenyl)ethynyl]phenyl}-1-(3-thiomorpholin-4-ylpropyl)-1,4,6,7-tetrahydro-5H-pyrazolo[4,3-c]pyridin-5-yl]-2-oxoacetamide] | 30 nM |
| NC(=O)C(=O)N1CCc2c(c(-c3ccc(Cl)c(C#Cc4ccc(Cl)c(C(=O)N[C@@H](CO)c5ccccc5)c4)c3)nn2CCCN2CCSCC2)C1 [Example 564, 5-[(5-{5-[Amino(oxo)acetyl]-1-(3-thiomorpholin-4-ylpropyl)-4,5,6,7-tetrahydro-1H-pyrazolo[4,3-c]pyridin-3-yl}-2-chlorophenyl)ethynyl]-2-chloro-N-[(1R)-2-hydroxy-1-phenylethyl]benzamide] | 30 nM |

Same assay, conditions: CatS IC50

| Compound | IC50 |
| --- | --- |
| CS(=O)(=O)N1CCc2c(c(-c3ccc(Cl)c(C#Cc4ccc(CNCc5ccc(Cl)cc5)cc4)c3)nn2CCCN2CCN(C(=O)c3ccccc3)CC2)C1 [Example 380, 1-[4-({2-Chloro-5-[5-(methylsulfonyl)-1-{3-[4-(phenylcarbonyl)piperazin-1-yl]propyl}-4,5,6,7-tetrahydro-1H-pyrazolo[4,3-c]pyridin-3-yl]phenyl}ethynyl)phenyl]-N-[(4-chlorophenyl)methyl]methanamine] | 60 nM |
| C[C@H]1COCCN1CCCn1nc(-c2ccc(Cl)c(C#Cc3ccc(Cl)c(C(=O)NCCCO)c3)c2)c2c1CCN(C(=O)C(N)=O)C2 [Example 560, 5-{[5-(5-[Amino(oxo)acetyl]-1-{3-[(3S)-3-methylmorpholin-4-yl]propyl}-4,5,6,7-tetrahydro-1H-pyrazolo[4,3-c]pyridin-3-yl)-2-chlorophenyl]ethynyl}-2-chloro-N-(3-hydroxypropyl)benzamide] | 20 nM |
| C[C@H]1COCCN1CCCn1nc(-c2ccc(Cl)c(CCc3ccc(CNCc4ccc(Cl)cc4)cc3)c2)c2c1CCN(C(N)=O)C2 [Example 244, 3-(4-Chloro-3-{2-[4-({[(4-chlorophenyl)methyl]amino}methyl)phenyl]ethyl}phenyl)-1-{3-[(3S)-3-methylmorpholin-4-yl]propyl}-1,4,6,7-tetrahydro-5H-pyrazolo[4,3-c]pyridine-5-carboxamide] | 60 nM |
| C[C@H]1COCCN1CCCn1nc(-c2ccc(Cl)c(C#Cc3ccc(CNCc4ccco4)cc3)c2)c2c1CCN(S(C)(=O)=O)C2 [Example 432, 1-[4-({2-Chloro-5-[1-{3-[(3S)-3-methylmorpholin-4-yl]propyl}-5-(methylsulfonyl)-4,5,6,7-tetrahydro-1H-pyrazolo[4,3-c]pyridin-3-yl]phenyl}ethynyl)phenyl]-N-(furan-2-ylmethyl)methanamine] | 230 nM |
| CN(C)C(=O)[C@@H]1Cc2ccc(C#Cc3cc(-c4nn(CCCN5CCOCC5)c5c4CN(S(C)(=O)=O)CC5)ccc3Cl)cc2CN1 [Example 193, (3S)-7-({2-Chloro-5-[5-(methylsulfonyl)-1-(3-morpholin-4-ylpropyl)-4,5,6,7-tetrahydro-1H-pyrazolo[4,3-c]pyridin-3-yl]phenyl}ethynyl)-N,N-dimethyl-1,2,3,4-tetrahydroisoquinoline-3-carboxamide] | 50 nM |
| CS(=O)(=O)N1CCc2c(c(-c3ccc(Cl)c(C#Cc4cccc(CNCCO)c4)c3)nn2CCCN2CCOCC2)C1 [Example 506, 2-({[3-({2-Chloro-5-[5-(methylsulfonyl)-1-(3-morpholin-4-ylpropyl)-4,5,6,7-tetrahydro-1H-pyrazolo[4,3-c]pyridin-3-yl]phenyl}ethynyl)phenyl]methyl}amino)ethanol] | 520 nM |
| NC(=O)N1CCc2c(c(-c3ccc(Cl)c(C#Cc4cccc(CNCc5ccccc5F)c4)c3)nn2CCCN2CCSCC2)C1 [Example 515, 3-(4-Chloro-3-{[3-({[(2-fluorophenyl)methyl]amino}methyl)phenyl]ethynyl}phenyl)-1-(3-thiomorpholin-4-ylpropyl)-1,4,6,7-tetrahydro-5H-pyrazolo[4,3-c]pyridine-5-carboxamide] | 250 nM |
| CCN(CC)Cc1ccc(C#Cc2cc(-c3nn(CCCN4CCOCC4)c4c3CN(S(C)(=O)=O)CC4)ccc2Cl)cc1 [Example 317, N-{[4-({2-Chloro-5-[5-(methylsulfonyl)-1-(3-morpholin-4-ylpropyl)-4,5,6,7-tetrahydro-1H-pyrazolo[4,3-c]pyridin-3-yl]phenyl}ethynyl)phenyl]methyl}-N-ethylethanamine] | 2710 nM |
| CS(=O)(=O)N1CCc2c(c(-c3ccc(Cl)c(C#Cc4ccc(CNCc5ccc(Cl)cc5)cc4)c3)nn2CCCN2CCC(N3CCCC3=O)CC2)C1 [Example 328, 1-(1-{3-[3-(4-Chloro-3-{[4-({[(4-chlorophenyl)methyl]amino}methyl)phenyl]ethynyl}phenyl)-5-(methylsulfonyl)-4,5,6,7-tetrahydro-1H-pyrazolo[4,3-c]pyridin-1-yl]propyl}piperidin-4-yl)pyrrolidin-2-one] | 20 nM |
| CS(=O)(=O)N1CCc2c(c(-c3ccc(Cl)c(C#Cc4ccc(CNCc5ccc(Cl)cc5)cc4)c3)nn2CCCN2CCNC(=O)C2)C1 [Example 397, 4-{3-[3-(4-Chloro-3-{[4-({[(4-chlorophenyl)methyl]amino}methyl)phenyl]ethynyl}phenyl)-5-(methylsulfonyl)-4,5,6,7-tetrahydro-1H-pyrazolo[4,3-c]pyridin-1-yl]propyl}piperazin-2-one] | 510 nM |

Same assay, conditions: CatS IC50, Table 2; average of results obtained

| Compound | IC50 |
| --- | --- |
| O=C(CF)N1CCc2c(c(-c3ccc(Cl)c(C#Cc4ccc(Cl)cc4)c3)nn2CCCN2CCOCC2)C1 [Example 140, 1-[3-[4-Chloro-3-(4-chloro-phenylethynyl)-phenyl]-1-(3-morpholin-4-yl-propyl)-1,4,6,7-tetrahydro-pyrazolo[4,3-c]pyridin-5-yl]-2-fluoro-ethanone] | 250 nM |
